Results from PMC11783601, “Analogue-Sensitive Inhibition of Histone Demethylases Uncovers Member-Specific Function in Ribosomal Protein Synthesis” (Journal of the American Chemical Society, 2025).
Entries after “also recorded” stand apart in the source; their conditions may differ.

What was measured:
[1] = tested on: rRNA transcription in HEK293T cells; experiment: Fixed cell immunofluorescence staining for H3K9me3 and 5FU (BrdU antibody) incorporation into rRNA; type: cell-based, human
Method: Upregulation of protein synthesis is linked to enhanced ribosomal biogenesis driven by the expression and coordinated assembly of the ribosomal RNAs (rRNAs). To systematically investigate the role of KDM4A in rRNA activation, HEK293T cells expressing wild type KDM4A or asKDM4A were briefly (∼15 min) exposed to 5-fluorouridine (5FU), a uridine analogue known to rapidly incorporate into nascent RNAs, in the presence of cell-permeable n-octyl IOX1 or NOL derivative 6B, respectively (Figure 6A). Given that there are about 350 copies of rDNA in the human genome, brief exposure to 5FU ensures the labeling of rRNAs primarily.[49][52] The cells were then fixed and stained with H3K9me3 antibody, along with BrdU antibody which recognizes 5FU, to examine any correlation between histone demethylation and rRNA expression using high-resolution immunofluorescence imaging. Both wild type KDM4A and F185A mutant led to robust increase in 5FU incorporated rRNA levels, while reduction in H3K9me3 signals was observed (Figures 6B,C and S36). […]
19. Fixed cell immunofluorescence staining
Cells were grown on poly-D-lysine (Gibco A3890401) treated glass coverslips (ThermoScientific 12-545-81P) overnight and transfected the next day with 300 ng KDM4A WT/F185A using […] of lipofectamine 2000 (Invitrogen 11668019). The cells were incubated overnight and treated with indicated inhibitor at varying time points. When probing rRNA transcription, cells were incubated with 2 mM 5-Fluorouridine (Sigma F5130) for 15 minutes. […]
20. Quantification of fixed-cell imaging data
TIF images obtained from confocal microscopy experiments were quantified in ImageJ. […]
The mean fluorescent signal was then measured. […]
For the time dependent imaging, cells containing the transfected KDM4A mutant were identified by their HA signal. […] The mean signal was then measured for H3K9me3 or BrdU only within the cells expressing the KDM4A mutant. To compare changes in H3K9me3 or BrdU between trials, the quantification values were normalized to the mean signal at t=0. […]

[2] = tested on: HEK293T cells; experiment: Cell permeability and hydrolysis to 6, LC-HRMS of cell extracts; type: in vitro ADME, human; details: 200 µM, 24 hours, LC-HRMS total ion counts
Description: We next examined the orthogonal pairs for their ability to modulate lysine demethylation on the chromosomal histone in cultured human cells (Figure 4A). To this end, we generated the F185A mutation in full-length KDM4A carrying all of the functional domains. Furthermore, to enhance cell permeability, we synthesized two chemoselective ester prodrugs 6A and 6B carrying either an n-octyl or a trifluoromethyl benzyl ester as the lipophilic moiety, respectively (Figures 4A, S5, and S6, Scheme S3).[46],[47] We confirmed the cell permeability of 6A and 6B and their subsequent hydrolysis to 6 by analyzing extracts of compound-treated HEK293T cells using LC-HRMS. […]
12. Examining cell permeability and toxicity of 6A and 6B
In a T-25 cell culture flask, HEK293T cells were treated with either 200 µM L-Leu octyl-ester NOG 6A, L-Leu TFMB-ester NOG 6B, or corresponding volume of DMSO. Following 24 hours of incubation at 37 °C, media was removed and 3mL of 80:20 methanol: water was added while the flasks with cells were on dry ice. The flasks were then incubated in -80 °C for 10 minutes to allow cell lysis. […] Relative de-esterification was determined by subtracting abundance of each treatment sample by the DMSO control and indicated molecular weights followed by dividing the abundance of L-Leu NOG molecular weight by the total abundance of esterified and de-esterified L-Leu 6 for each sample. […]

SMILES	histone demethylation and 5FU incorporation ([1]; HEK293T cells overexpressing wild type KDM4A, 10 µM n-octyl IOX1)	membrane permeability and hydrolysis to 6 [2]	5FU incorporation into rRNA ([1]; HEK293T cells expressing F185A)	H3K9me3 levels ([1]; HEK293T cells expressing F185A)
CCCCCCCCOC(=O)c1ccc(O)c2ncccc12 [n-octyl IOX1]	inhibited; also recorded: repressed histone demethylation and 5FU incorporation	–	–	–
CCCCCCCCOC(=O)C(=O)NC(CC(C)C)C(=O)O [6A, L-Leu octyl-ester NOG]	–	comparable membrane permeability	–	–
CC(C)CC(NC(=O)C(=O)OCc1cccc(C(F)(F)F)c1)C(=O)O [6B, L-Leu TFMB-ester NOG]	–	comparable membrane permeability	attenuated 5FU incorporation in a dose–response manner	re-emergence of H3K9me3 levels
